Literature values, collected in patent publication US4041155A, “Long acting somatostatin composition” (American Home Products Corporation, priority 1974, dated 1977).

Assays:
GH secretion = conditions: patients with acromegaly; cited from earlier work
[1] = tested on: release of glucagon, insulin, and GH; conditions: oral glucose tolerance and intravenous arginine tests; cited from earlier work
circulating levels of GH = conditions: subcutaneous route, cited from earlier work

Substance | circulating levels of glucose (GH secretion) | circulating levels of insulin (GH secretion) | circulating levels of prolactin (GH secretion) | duration of biologic action (GH secretion) | free fatty acids (GH secretion) | inhibitory action on GH secretion (GH secretion) | levels of follicle-stimulating hormone (GH secretion) | levels of luteinizing hormone (GH secretion) | levels of thyrotropin (GH secretion) | release of GH [1] | release of glucagon [1] | release of insulin [1] | circulating levels of GH (circulating levels of GH; "gentled" rats) | elevation of plasma GH concentration induced by sodium pentobarbital (circulating levels of GH; rats) | duration of activity, half-life (circulating levels of GH; rats, estimated)
Somatostatin: cyclic disulfide tetradecapeptide; Somatotropin-release inhibiting factor secreted by the hypothalamus | fall | fall | fall | brief | increase | nearly complete | No effects | No effects | No effects | impairs the release | impairs the release | impairs the release |  |  | 
linear somatostatin: reduced tetradecapeptide; differs from cyclic form by lacking the bridging bond between the two cysteinyl sulfhydryls |  |  |  |  |  |  |  |  |  |  |  |  | lowers the circulating levels of GH | prevents the elevation of plasma GH concentration | less than ten minutes
